In US8889671B2, “Compounds and methods for treating bacterial infections” (AstraZeneca AB, priority 2013, dated 2014):
Where two headings read alike, the source gives them in different places.

Experiments:
[1] = biological target: Escherichia coli DNA gyrase A/B tetramer (Escherichia coli (strain K12), UniProt P0AES4+P0AES6); test: DNA gyrase supercoiling activity fluorescence polarisation assay; format: biochemical; conditions: 0.3 mM ATP
Outline: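 IC50 derived by nonlinear regression from BODIPY-FL fluorescence anisotropy, read 60 min after quenching with labelled triplex-forming probe (pH 3.5). Reaction: 5 nM gyrase tetramer, 130 micrograms/mL relaxed plasmid, 0.3 mM ATP, 4 mM MgCl2, pH 7.5, typically 30 min at ambient temperature, 5-10 compound concentrations.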

Staphylococcus aureus = test: Susceptibility testing (MIC) Assay 1, broth microdilution; format: cell-based
Streptococcus pneumoniae = test: as above; format: cell-based
Streptococcus pyogenes = test: as above; format: cell-based; conditions: in vivo strain, read-out: Spy MIC
Pseudomonas aeruginosa = test: Susceptibility testing (MIC) Assay 2, broth microdilution; format: cell-based; conditions: for MIC: PAO1, read-out: Pae MIC
Escherichia coli = test: as above; format: cell-based
Haemophilus influenzae = test: as above; format: cell-based
Klebsiella pneumoniae = test: as above; format: cell-based
[2] = Eco Gyr FP Mean IC50, E. coli DNA gyrase supercoiling
[3] = Staphylococcus aureus, in vivo strain, MRQR, read-out: Sau(e) MIC
[4] = Staphylococcus aureus, serum, read-out: Sau(f) MIC
[5] = in vivo strain (footnote b), read-out: Spn(b) MIC
[6] = in vivo strain (footnote c), read-out: Spn(c) MIC
[7] = clinical isolate, mucoid, read-out: Kpn MIC
[8] = Staphylococcus aureus, Staphylococcus aureus in vivo strain, MSQS, read-out: Sau(d) MIC
[9] = Streptococcus pyogenes, Streptococcus pyrgenes
[10] = ATCC51907, Haemophilus influenzae, ATCC 51907, in vivo strain, read-out: Hin MIC

SMILES | IC50 [1, 2] | MIC (Staphylococcus aureus; [3]) | MIC (Staphylococcus aureus; [4]) | MIC (Streptococcus pneumoniae; [5]) | MIC (Streptococcus pneumoniae; [6]) | MIC (Escherichia coli; K12, read-out: Eco MIC) | MIC (Klebsiella pneumoniae; [7]) | MIC (Staphylococcus aureus; [8]) | MIC (Streptococcus pyogenes; [9]) | MIC (Pseudomonas aeruginosa) | MIC (Haemophilus influenzae; [10]) | further results
COC[C@H]1[C@@H](C)OC(=O)N1c1noc2c(F)c3c(cc12)CC1(C(=O)NC(=O)NC1=O)[C@H]1[C@H](C)O[C@H](C)CN31 [Example 79, (2R,4S,4aS)-11-fluoro-8-((4S,5R)-4-(methoxymethyl)-5-methyl-2-oxooxazolidin-3-yl)-2,4-dimethyl-2,4,4a,6-tetrahydro-1H,1′H-spiro[isoxazolo[4,5-g][1,4]oxazino[4,3-a]quinoline-5,5′-pyrimidine]-2′,4′,6′(3′H)-trione] | > 2.1 µM | 2 mg/L | – | – | – | – | – | – | – | – | – | MIC (Staphylococcus aureus; Staphylococcus aureus, ATCC29213, Staphylococcus aureus, in vivo strain, ATCC 29213, read-out: Sau(d) MIC): 1 mg/L; MIC (Staphylococcus aureus; Staphylococcus aureus, MRSA, Staphylococcus aureus, in vivo strain, MRSA, read-out: Sau(f) MIC): 1 mg/L; MIC (Streptococcus pneumoniae; ATCC49619, Streptococcus pneumoniae, ATCC 49619, read-out: Spn(c) MIC): 1 mg/L; MIC (Streptococcus pneumoniae; in vivo strain, read-out: Spn(b) MIC): 2 mg/L; MIC (Streptococcus pyogenes; Streptococcus pyogenes, Streptococcus pyrogenes): 1 mg/L; MIC (Pseudomonas aeruginosa; Pseudomonoas aeruginosa): > 64 mg/L; MIC (Escherichia coli; ATCC25922, Escherichia coli, in vivo strain, ATCC 25922, read-out: Eco(b) MIC): 32 mg/L; MIC (Escherichia coli; ATCC35218, Escherichia coli, ATCC 35218, read-out: Eco(c) MIC): 64 mg/L; MIC (Haemophilus influenzae; ATCC49247, Haemophilus influenzae, ATCC 49247, read-out: Hin MIC): 0.5 mg/L; MIC (Klebsiella pneumoniae; ATCC700603, ATCC 700603, read-out: Kpn(e) MIC): > 64 mg/L; MIC (Klebsiella pneumoniae; clinical isolate, mucoid, read-out: Kpn(d) MIC): > 64 mg/L
C[C@@H]1CN2c3c(cc4c(N5C(=O)OC[C@@H]5C5CCOCC5)noc4c3F)CC3(C(=O)NC(=O)NC3=O)[C@H]2[C@H](C)O1 [Example 28] | – | 50 µM | 50 µM | 25 µM | 25 µM | >200 µM | >200 µM | – | – | – | – | IC50 ([1]; E. coli DNA gyrase supercoiling, read-out: Eco Gyr FP Mean IC50): > 2.1 µM; MIC (Staphylococcus aureus; Staphylococcus aureus in vivo strain, MSQS, read-out: Sau(d) MIC): 25 µM; MIC (Streptococcus pyogenes; Streptococcus pyrgenes): 25 µM; Pae MIC (Pseudomonas aeruginosa; PAO1): >200 µM; MIC (Haemophilus influenzae; ATCC 51907, in vivo strain, read-out: Hin MIC): 25 µM
COC[C@H]1CN(c2noc3c(F)c4c(cc23)CC2(C(=O)NC(=O)NC2=O)[C@H]2[C@H](C)O[C@H](C)CN42)C(=O)O1 [Example 36] | 0.59 µM | 3.1 µM | 1.6 µM | 1.6 µM | 1.6 µM | 100 µM | > 200 µM | 0.78 µM | 0.78 µM | > 200 µM | 1.6 µM | –
C[C@@H]1CN2c3c(cc4c(N5C(=O)OC[C@@H]5C=NO)noc4c3F)CC3(C(=O)NC(=O)NC3=O)[C@H]2[C@H](C)O1 [Example 74, (2R,4S,4aS)-11-fluoro-8-{(4S)-4-[(hydroxyimino)methyl]-2-oxo-1,3-oxazolidin-3-yl}-2,4-dimethyl-1,2,4,4a-tetrahydro-2′H,6H-spiro[1,4-oxazino[4,3-a][1,2]oxazolo[4,5-g]quinoline-5,5′-pyrimidine]-2′,4′,6′(1′H,3′H)-trione] | 0.47 µM | 12 µM | 12 µM | 1.6 µM | 1.6 µM | 100 µM | > 200 µM | 6.2 µM | 1.6 µM | > 200 µM | 0.78 µM | –
COC[C@H]1CN(c2noc3c(Cl)c4c(cc23)CC2(C(=O)NC(=O)NC2=O)[C@H]2[C@H](C)O[C@H](C)CN42)C(=O)O1 [Example 21, (2R,4S,4aS)-11-Chloro-8-[(5R)-4-(methoxymethyl)-2-oxo-1,3-oxazolidin-3-yl]-2,4-dimethyl-1,2,4,4a-tetrahydro-2′H,6H-spiro[1,4-oxazino[4,3-a][1,2]oxazolo[4,5-g]quinoline-5,5′-pyrimidine]-2′,4′,6′(1′H,3′H)-trione] | 0.54 µM | 3.1 µM | 3.1 µM | 1.6 µM | 1.6 µM | 50 µM | 200 µM | 0.78 µM | 0.78 µM | > 200 µM | 1.6 µM | –
COC[C@@H]1CN(c2noc3c(F)c4c(cc23)CC2(C(=O)NC(=O)NC2=O)[C@H]2[C@H](C)O[C@H](C)CN42)C(=O)O1 [Example 35] | 0.31 µM | 1.6 µM | 0.39 µM | 0.39 µM | 0.39 µM | 50 µM | > 200 µM | < 0.2 µM | 0.2 µM | > 200 µM | 0.78 µM | –
CC[C@H]1COC(=O)N1c1noc2c(F)c3c(cc12)CC1(C(=O)NC(=O)NC1=O)[C@H]1[C@H](C)O[C@H](C)CN31 [Example 6, (2R,4S,4aS)-8-[(4S)-4-Ethyl-2-oxo-1,3-oxazolidin-3-yl]-11-fluoro-2,4-dimethyl-1,2,4,4a-tetrahydro-2′H,6H-spiro[1,4-oxazino[4,3-a][1,2]oxazolo[4,5-g]quinoline-5,5′-pyrimidine]-2′,4′,6′(1′H,3′H)-trione] | 3.3 µM | 6.2 µM | 12 µM | 6.2 µM | 3.1 µM | 100 µM | 121 µM | 1.6 µM | 3.1 µM | > 200 µM | 3.1 µM | –
C[C@@H]1CN2c3c(cc4c(N5C(=O)OC[C@@H]5[C@H](O)CO)noc4c3F)CC3(C(=O)NC(=O)NC3=O)[C@H]2[C@H](C)O1 [Example 73] | 0.34 µM | 100 µM | 25 µM | 0.78 µM | 3.1 µM | > 200 µM | > 200 µM | 25 µM | 0.78 µM | > 200 µM | 6.2 µM | –
C[C@@H]1CN2c3c(cc4c(N5C(=O)OC[C@@H]5[C@@H](C)O)noc4c3F)CC3(C(=O)NC(=O)NC3=O)[C@H]2[C@H](C)O1 [Example 77] | 0.53 µM | 12 µM | 6.2 µM | 0.78 µM | 0.78 µM | 200 µM | > 200 µM | 3.1 µM | 0.78 µM | > 200 µM | 0.78 µM | –
C[C@@H]1CN2c3c(cc4c(N5C(=O)OC[C@@H]5C5CC5)noc4c3F)CC3(C(=O)NC(=O)NC3=O)[C@H]2[C@H](C)O1 [Example 52] | 0.9 µM | 1.6 µM | 3.1 µM | 1.6 µM | 1.6 µM | 25 µM | 200 µM | 0.78 µM | 0.78 µM | > 200 µM | 0.78 µM | –
C[C@@H]1CN2c3c(cc4c(N5C(=O)OC[C@@H]5c5ccccn5)noc4c3F)CC3(C(=O)NC(=O)NC3=O)[C@H]2[C@H](C)O1 [Example 56, (2R,4S,4aS)-11-fluoro-2,4-dimethyl-8-((S)-2-oxo-4-(pyridin-2-yl)oxazolidin-3-yl)-2,4,4a,6-tetrahydro-1H,1′H-spiro[isoxazolo[4,5-g][1,4]oxazino[4,3-a]quinoline-5,5′-pyrimidine]-2′,4′,6′(3′H)-trione] | 1.9 µM | 6.2 µM | 25 µM | 6.2 µM | 6.2 µM | > 200 µM | > 200 µM | 3.1 µM | 3.1 µM | > 200 µM | 3.1 µM | –
